Among the data in patent publication US9351489B2 (priority 2010, dated 2016) are LogP, Efficacy in % and chromatographic logP values, retold here.

A short description of data set [1]: logP by HPLC on reversed phase columns (EEC directive 79/831 Annex V.A8). The format is physicochemical. Conditions: for chromatographic logP: reversed phase HPLC columns. On the procedure:
Measurement of logP values was performed according EEC directive 79/831 Annex V.A8 by HPLC (High Performance Liquid Chromatography) on reversed phase columns with the following methods:
^[a] measurement of LC-MS was done at pH 2.7 with 0.1% formic acid in water and with acetonitrile (contains 0.1% formic acid) as eluent with a linear gradient from 10% acetonitrile to 95% acetonitrile. […]

The next data set has as its system Phytophthora infestans. The class given is in vivo. Conditions: tomato plants, preventive spray, 500 ppm of active ingredient, evaluated 7 days after inoculation; 0% = untreated control, 100% = no disease.
A further data set has as its system Plasmopara viticola. Nature of the data set: Plasmopara test (grapevines)/preventive. The note with it: preventive spray, 100 ppm of active ingredient, evaluated 6 days after inoculation, 0% = untreated control, 100% = no disease. The class given is in vivo. On the procedure:
Plasmopara Test (Grapevines)/Preventive • Solvent: 24.5 parts by weight of acetone • 24.5 parts by weight of dimethylacetamide • Emulsifier: 1 part by weight of alkylaryl polyglycol ether
To produce a suitable preparation of active compound, 1 part by weight of active compound is mixed with the stated amounts of solvent and emulsifier, and the concentrate is diluted with water to the desired concentration. To test for preventive activity, young plants are sprayed with the preparation of active compound at the stated rate of application. After the spray coating has dried on, the plants are inoculated with an aqueous spore suspension of Plasmopara viticola and then remain for 1 day in an incubation cabinet at approximately 20° C. and a relative atmospheric humidity of 100%. The plant is subsequently placed for 4 days in a greenhouse at approximately 21° C. and a relative atmospheric humidity of approximately 90%. The plants are then misted and placed for 1 day in an incubation cabinet. The test is evaluated 6 days after the inoculation. 0% means an efficacy which corresponds to that of the untreated control, while an efficacy of 100% means that no disease is observed.

[2] abbreviates: method [a]: LC-MS at pH 2.7, 0.1% formic acid in water / acetonitrile, gradient 10% to 95% acetonitrile.
[3] abbreviates: pH 2.7, method [a]: LC-MS at pH 2.7, 0.1% formic acid in water / acetonitrile, gradient 10% to 95% acetonitrile.
[4] abbreviates: pH 2.7, value in preparation example text, method not given.

With `CC(NC(=C(C#N)C(=O)c1ccco1)c1ccccc1Br)C1CC1` (stereo not shown) [Example 10], the lipophilicity (LogP) in data set [1] (setting [2]) was 3.50^[a]. Regarding `CC(NC(=C(C#N)C(=O)CC1CC1)c1ccccc1Br)C1CC1` (stereo not shown) [Example 24], the lipophilicity (LogP) in data set [1] (setting [2]) is 4.06^[a]. In the data set with Phytophthora infestans, the Efficacy in % is given as 85%.

Consider `CCCC(=NOC)C(C#N)=C(NC(C)C(C)C)c1ccccc1Cl` (stereo not shown) [Example 35, 2-{(2-chlorophenyl)[(3-methylbutan-2-yl)amino]methylene}-3-(methoxyimino)hexanenitrile], for which the chromatographic logP in data set [1] (setting [3]) and in data set [1] (setting [4]) was 5.34 throughout.

With `CC(NC(=C(C#N)C(=O)C1CCC1)c1ccccc1Br)C1CC1` (stereo not shown) [Example 11], the LogP in data set [1] (setting [2]) is 4.20^[a]. Same read-out and setting: the value for `CC(C)C(C)NC(=C(C#N)C(=O)CCl)c1ccccc1Cl` (stereo not shown) [Example 18] was 3.78^[a]. On the same count and under the same terms, under `CC(NC(=C(C#N)C(=O)C1CCCC1)c1ccccc1Br)C1CC1` (stereo not shown) [Example 29] stands 4.60^[a]. For `COCC(=O)C(C#N)=C(NC(C)C(C)C)c1ccccc1Br` (stereo not shown) [Example 19], the LogP in data set [1] (setting [2]) is 3.27^[a]. The Efficacy in % in the data set on Phytophthora infestans came out at 95%; with Plasmopara viticola, 74%. Turning to `CCCCC(=O)C(C#N)=C(NC(C)C(C)C)c1ccccc1Cl` (stereo not shown) [Example 14], the lipophilicity (LogP) in data set [1] (setting [2]) is 4.81^[a]. With `N#CC=C(Cl)c1ccccc1Cl` [3-chloro-3-(2-chlorophenyl)acrylonitrile], the chromatographic logP in data set [1] (setting [4]) is 3.02. In data set [1] (value in preparation example text, method not given), this compound had a LogP of 3.23. Consider `CCCC(=O)C(C#N)=C(N[C@@H](C)C1CC1)c1ccccc1Br` [Example 34], for which the lipophilicity (LogP) in data set [1] (setting [2]) was 4.10^[a]. In addition, the Efficacy in % in the data set with Phytophthora infestans was 93%.

For the compound `CC(NC(=C(C#N)C(=O)C1CCOC1)c1ccccc1Br)C1CC1` (mixture of isomers) [Example 30], in data set [1] (setting [2]), the LogP is 3.25^[a]. Still for that read-out and setting: the value for `CC(C)C(C)NC(=C(C#N)C(=O)C1CC1)c1ccccc1Cl` (stereo not shown) [Example 31] was 4.18^[a]; that for `CC(C)C(C)NC(=C(C#N)C(=O)C1CCC1)c1ccccc1Br` (stereo not shown) [Example 22] was 4.64^[a]; that for `CC(C)C(C)NC(=C(C#N)C(=O)C1CC1)c1ccccc1Br` (stereo not shown) [Example 8] was 4.21^[a]. Still for that read-out and setting: the value for `CC(C)C(C)NC(=C(C#N)C(=O)C1CCOC1)c1ccccc1Br` (mixture of isomers) [Example 1] was 3.60^[a]; that for `CCCC(=NC#N)C(C#N)=C(N[C@@H](C)C(C)C)c1ccccc1Cl` [Example 36] was 3.85^[a].

In the case of `CC(C)C(C)NC(=CC#N)c1ccccc1Cl` (stereo not shown) [3-(2-chlorophenyl)-3-[(3-methylbutan-2-yl)amino]acrylonitrile], the chromatographic logP in data set [1] (setting [4]) is 3.27.

As to `COCCC(=O)C(C#N)=C(NC(C)C(C)C)c1ccccc1Cl` (stereo not shown) [Example 27], in data set [1] (setting [2]), the LogP is 3.55^[a]. For `CCCCC(=O)C(C#N)=C(NC(C)C(C)C)c1ccccc1Br` (stereo not shown) [Example 12], the LogP in data set [1] (setting [2]) was 4.85^[a]. The same measure, in the same setting: the value for `CCCCC(=O)C(C#N)=C(NC(C)C1CC1)c1ccccc1Br` (stereo not shown) [Example 15] was 4.40^[a]; that for `CC(NC(=C(C#N)C(=O)C1CC1)c1ccccc1Br)C1CC1` (stereo not shown) [Example 20] was 3.90^[a].

As for `COCCC(=O)C(C#N)=C(NC(C)C1CC1)c1ccccc1Br` (stereo not shown) [Example 3], in data set [1] (setting [2]), the LogP was 3.20^[a].

In the case of `CC(C)C(C)NC(=C(C#N)C(=O)C1CCCCO1)c1ccccc1Br` (mixture of isomers) [Example 26], in data set [1] (setting [2]), the LogP is 3.80^[a]. With `CC(C)CC(=O)C(C#N)=C(N[C@@H](C)C(C)C)c1ccccc1Cl` [Example 33], the LogP in data set [1] (setting [2]) was 4.73^[a]. For `COCC(=O)C(C#N)=C(NC(C)C1CC1)c1ccccc1Br` (stereo not shown) [Example 5], in data set [1] (setting [2]), the LogP is 3.00^[a]. This compound registered an Efficacy in % in the data set with Phytophthora infestans of 93%. Take `CC(NC(=C(C#N)C(=O)CCl)c1ccccc1Br)C1CC1` (stereo not shown) [Example 7]: the log partition coefficient (LogP) in data set [1] (setting [2]) is 3.50^[a]. Same read-out and setting: under `CCC(=O)C(C#N)=C(NC(C)C(C)C)c1ccccc1Br` (stereo not shown) [Example 9] stands 4.04^[a]. Same read-out and setting: the value for `CC(C)C(C)NC(=C(C#N)C(=O)CC1CC1)c1ccccc1Cl` (stereo not shown) [Example 2] was 4.27^[a]. Regarding `CCC(=O)C(C#N)=C(NC(C)C1CC1)c1ccccc1Br` (stereo not shown) [Example 28], in data set [1] (setting [2]), the LogP was 3.60^[a]. Still for that read-out and setting: under `CC(C)C(C)NC(=C(C#N)C(=O)c1ccco1)c1ccccc1Cl` (stereo not shown) [Example 6] stands 3.87^[a]. As to `CCCC(=O)C(C#N)=C(NC(C)C(C)C)c1ccccc1Br` (stereo not shown) [Example 17], the LogP in data set [1] (setting [2]) is 4.40^[a]. Further, the Efficacy in % with Phytophthora infestans was 100%; in the data set on Plasmopara viticola it was 93%. On to `CC(NC(=C(C#N)C(=O)Cc1ccccc1)c1ccccc1Br)C1CC1` (stereo not shown) [Example 25], for which the log partition coefficient (LogP) in data set [1] (setting [2]) was 4.20^[a]. `CC(C)C(C)NC(=C(C#N)C(=O)CC1CC1)c1ccccc1Br` (stereo not shown) [Example 16]: the LogP in data set [1] (setting [2]) was 4.34^[a]. This compound also registered an Efficacy in % in the data set on Phytophthora infestans of 95%. For `C[C@H](NC(=C(C#N)C(=O)C1CCCCO1)c1ccccc1Br)C1CC1` (stereo partly shown) [Example 32], the LogP in data set [1] (setting [2]) was 3.50^[a]. For the compound `CCCC(=O)C(C#N)=C(NC(C)C(C)C)c1ccccc1Cl` (stereo not shown) [Example 13, 2-{(2-chlorophenyl)[(3-methylbutan-2-yl)amino]methylene}-3-oxohexanenitrile], the chromatographic logP in data set [1] (setting [3]) and in data set [1] (setting [4]) was 4.44 throughout. On to `CC(C)C(C)NC(=C(C#N)C(=O)C1CCCC1)c1ccccc1Br` (stereo not shown) [Example 4], for which the LogP in data set [1] (setting [2]) is 5.05^[a]. As to `CNCC(=O)C(C#N)=C(NC(C)C(C)C)c1ccccc1Cl` (stereo not shown) [Example 21], in data set [1] (setting [2]), the LogP was 1.89^[a]. Still for that read-out and setting: the value for `COCC(=O)C(C#N)=C(NC(C)C(C)C)c1ccccc1Cl` (stereo not shown) [Example 23] was 3.21^[a].

Broadly, the LogP is the decadic logarithm of the partition coefficient of the neutral form, usually between octanol and water. High values mean a more lipophilic compound, low ones a more hydrophilic compound. In general, chromatographic logP refers to a lipophilicity value derived from retention on a column. Low values mean a more hydrophilic compound, high ones a more lipophilic compound.
